Measured values published in article PMC7248905, “Development of UHPLC-MS/MS Method for Indirubin-3′-Oxime Derivative as a Novel FLT3 Inhibitor and Pharmacokinetic Study in Rats” (Molecules, 2020).
Read-outs that look alike come from different tables or passages of the source.

Columns and labels:
[1] = Pharmacokinetic study in rats after intravenous and oral administration; type: in vivo, Sprague Dawley rats; parameters: AUC/Dose: unit not given here; settings: rat; for AUC(0-t) / clearance / MRT / half-life / Vd / Cmax / bioavailability: male, Sprague Dawley, plasma; for clearance: read-out: CL (time averaged total body clearance); for MRT: read-out: MRT (mean residence time) (converted); for Vd: read-out: Vd,ss (apparent volume of distribution at steady state); for Cmax: read-out: Cmax (maximum plasma concentration)
Text: The validated LC-MS/MS method was successfully implemented to quantify LDD-2614 in Sprague Dawley rat plasma to perform a pharmacokinetic study on LDD-2614 in rats after oral and intravenous administration.
Male Sprague Dawley rats (7–8 weeks, 230–250 g) were supplied from Samtaco (Osan, Korea) and were housed in cages before the experiments. All animal experiments were approved by the Dankook University’s Institutional Animal Care and Use Committee (approval no. DKU-19-029). All rats were kept in a light-controlled room maintained at a temperature of 23 ± 2 °C with 12 h light and dark cycles and a relative humidity of 50% ± 10%. The rats were given ad libitum access to standard food and water and acclimated to the environment for 7 days prior to the experiment.
The rats were fasted for at least 12 h prior to the start of the experiments and freely supplied water. On the morning of the test, the rats were anaesthetized with a mixture of alfaxan and rompun (75:25, v/v). For oral administration studies, the carotid artery was cannulated using a polyethylene tube (PE 60, 0.76 mm i.d., 1.22 mm o.d., Becton Dickinson, Franklin Lakes, NJ, USA) for efficient blood sampling. For intravenous administration studies, the carotid artery and jugular veins were cannulated for blood sampling and drug administration, respectively. Each cannula was exteriorized to the dorsal side of the neck. Then, each rat was individually housed in a rat metabolism cage and allowed to move freely. A recovery time of 3–4 h from anesthesia was allowed before drug administration. The rats were randomly divided into six groups as follows: the first three groups were orally administered LDD-2614 (4 mL/kg dissolved in distilled water) using a gastric gavage tube at doses of 1, 5, and 20 mg/kg, and the remaining three groups were intravenously injected over 1 min with LDD-2614 (4 mL/kg dissolved in distilled water) at doses of 1, 5, and 20 mg/kg. Samples of approximately 0.2 mL of blood were immediately collected via the carotid artery at 0 (before administration), 5, 15, 30, 60, 90, 120, 180, 240, 360, 480, and 1440 min after oral and intravenous administration. For intravenous administration, a sampling time of 1 min after administration was also added, and the remaining times were the same. The blood samples were immediately centrifuged at 12,000 rpm for 5 min. Each plasma sample was transferred into a new microtube and stored at −80 °C until used for LC–MS/MS analysis.
All data are expressed as mean ± standard deviation. The pharmacokinetic parameters were calculated using Phoenix WinNonlin 2.1 (Pharmasight, Mountain View, CA, USA). A noncompartmental model was used.

[2] = Stability of LDD-2614 in rat plasma (freeze-thaw, long-term, short-term, autosampler); type: in vitro ADME; settings: for Measured Concentration: n = 5
Description: Stability studies using three QC samples for freeze-thaw stability (three freeze-thaw cycles lasting 12 h each), long-term stability (sample stored at −80 °C and analyzed after 2 weeks), short-term temperature stability (samples kept at room temperature for 6 h), and post-preparation stability (12 h in autosampler) were evaluated. The measurements of the analytes were compared with those from newly prepared QC samples at the same concentrations. The accuracy (RE) of all analytes ranged from −0.6% to 8.6% for the three freeze-thaw cycles, −5.5% to −2.6% for long-term stability, −3.6% to −0.1% for short-term stability, and −1.5% to 1.5% for post-preparation stability.
Stability was evaluated with rat plasma at the four QC concentrations. Three freeze (−80 °C) and thaw (room temperature, 25 °C and stand for 2 h) cycles, long-term stability (−80 °C for 2 weeks), short-term stability (room temperature for 6 h), and post-extraction stability (12 h in the autosampler at 4 °C) were tested. The concentrations of the prepared stability samples were compared to the QC samples prepared on the day of analysis. The stability samples were considered stable if recovered within 15% compared to the QC sample concentration.

FLT3 = system: FLT3; parameters: method as in PMID 32272419; settings: in vitro assays, previous studies; cited from earlier work
MV4-11 cells = system: MV4-11 cells; parameters: method as in PMID 32272419; settings: AML line of MV4-11 cells, previous studies; cited from earlier work
MV4-11 xenograft = system: MV4-11 xenograft; parameters: method as in PMID 32272419; settings: MV4-11 xenograft animal model, previous studies; cited from earlier work
[3] = extracted rat plasma, autosampler 4 °C 12 h, nominal 0.3 ng/mL
[4] = extracted rat plasma, autosampler 4 °C 12 h, nominal 150 ng/mL
[5] = extracted rat plasma, autosampler 4 °C 12 h, nominal 400 ng/mL
[6] = rat plasma, long-term −80 °C 2 weeks, nominal 0.3 ng/mL
[7] = rat plasma, long-term −80 °C 2 weeks, nominal 150 ng/mL
[8] = rat plasma, long-term −80 °C 2 weeks, nominal 400 ng/mL
[9] = rat plasma, short-term room temp 6 h, nominal 0.3 ng/mL
[10] = rat plasma, short-term room temp 6 h, nominal 150 ng/mL
[11] = rat plasma, short-term room temp 6 h, nominal 400 ng/mL
[12] = rat plasma, three freeze-thaw cycles, nominal 0.3 ng/mL
[13] = rat plasma, three freeze-thaw cycles, nominal 150 ng/mL
[14] = rat plasma, three freeze-thaw cycles, nominal 400 ng/mL

## O=C1Nc2ccc(F)cc2C1=C1Nc2ccc(F)cc2C1=NOCCN1CCNCC1 [LDD-2614]
[1]; intravenous, 1 mg/kg, n = 7, mean ± SD
  AUC(0-t): 635 ng·h/mL
[1]; intravenous, 1 mg/kg
  clearance: 30.7 ± 13.6 mL/min/kg
  MRT: 4.53 h
  Vd: 9.62 ± 3.38 L/kg
  AUC/Dose: 38.1 ± 18.5
[1]; intravenous, 1 mg/kg, read-out: T1/2 (terminal half-life)
  half-life: 4.91 ± 0.542 h
[1]; intravenous, 5 mg/kg, n = 5, mean ± SD
  AUC(0-t): 3510 ng·h/mL
[1]; intravenous, 5 mg/kg
  clearance: 20.8 ± 8.4 mL/min/kg
  MRT: 4.76 h
  Vd: 6.42 ± 2.44 L/kg
  AUC/Dose: 42.1 ± 12.9
[1]; intravenous, 5 mg/kg, read-out: T1/2 (terminal half-life)
  half-life: 3.31 ± 0.575 h
[1]; intravenous, 20 mg/kg, n = 6, mean ± SD
  AUC(0-t): 14400 ng·h/mL
[1]; intravenous, 20 mg/kg
  clearance: 23.2 ± 3.7 mL/min/kg
  MRT: 5.88 h
  Vd: 8.67 ± 2.08 L/kg
  AUC/Dose: 43.2 ± 7.5
[1]; intravenous, 20 mg/kg, read-out: T1/2 (terminal half-life)
  half-life: 3.38 ± 0.778 h
[1]; intravenous, dose range 1–20 mg/kg, terminal phase, read-out: half-life (T1/2)
  half-life: 3 to 4 h
[1]; oral, 1 mg/kg, n = 6, mean ± SD
  AUC(0-t): 73.8 ng·h/mL
[1]; oral, 1 mg/kg
  Cmax: 5.96 ± 1.77 ng/mL
  AUC/Dose: 4.43 ± 0.39
[1]; oral, 1 mg/kg, read-out: F (bioavailability)
  bioavailability: 11.7%
[1]; oral, 5 mg/kg, n = 6, mean ± SD
  AUC(0-t): 390 ng·h/mL
[1]; oral, 5 mg/kg
  Cmax: 43.7 ± 8.2 ng/mL
  AUC/Dose: 4.69 ± 3.05
[1]; oral, 5 mg/kg, read-out: F (bioavailability)
  bioavailability: 11.1%
[1]; oral, 20 mg/kg, n = 5, mean ± SD
  AUC(0-t): 1020 ng·h/mL
[1]; oral, 20 mg/kg
  Cmax: 120 ± 33.4 ng/mL
  AUC/Dose: 3.05 ± 1.24
[1]; oral, 20 mg/kg, read-out: F (bioavailability)
  bioavailability: 7.1%
[1]; oral, doses 1–20 mg/kg, compared with intravenous AUClast, read-out: bioavailability after oral administration
  bioavailability: 7.1 to 11.7%
[1]; intravenous, dose range 1–20 mg/kg
  dose linearity of pharmacokinetics: linear pharmacokinetic characteristics were observed
[1]; oral, 20 mg/kg versus 5 mg/kg (four-fold increase in dose)
  increase in AUC: approximately 2.5 fold
[2]; [3]
  Accuracy (RE): −1.1%
  Measured Concentration: 0.30 ± 0.03 ng/mL
[2]; [4]
  Accuracy (RE): −1.5%
  Measured Concentration: 147.8 ± 2.98 ng/mL
[2]; [5]
  Accuracy (RE): 1.5%
  Measured Concentration: 410.2 ± 24.3 ng/mL
[2]; rat plasma, freeze-thaw, long-term, short-term, post-preparation
  degradation under the different storage and analysis conditions: no significant degradation observed
[2]; [6]
  Accuracy (RE): −4.8%
  Measured Concentration: 0.29 ± 0.02 ng/mL
[2]; [7]
  Accuracy (RE): −2.6%
  Measured Concentration: 146.1 ± 0.65 ng/mL
[2]; [8]
  Accuracy (RE): –5.5%
  Measured Concentration: 378.1 ± 17.7 ng/mL
[2]; [9]
  Accuracy (RE): −0.1%
  Measured Concentration: 0.30 ± 0.03 ng/mL
[2]; [10]
  Accuracy (RE): −3.6%
  Measured Concentration: 144.6 ± 6.46 ng/mL
[2]; [11]
  Accuracy (RE): −1.2%
  Measured Concentration: 395.1 ± 13.0 ng/mL
[2]; [12]
  Accuracy (RE): 8.6%
  Measured Concentration: 0.33 ± 0.02 ng/mL
[2]; [13]
  Accuracy (RE): −0.6%
  Measured Concentration: 149.1 ± 1.31 ng/mL
[2]; [14]
  Accuracy (RE): −0.3%
  Measured Concentration: 398.9 ± 6.04 ng/mL
FLT3
  FLT3 inhibition: FLT3 inhibition
MV4-11 cells
  anti-proliferative activity: anti-proliferative activity
MV4-11 xenograft
  in vivo antitumor activity: significant in vivo antitumor activity
